Source: PMC7782499, “Progerinin, an optimized progerin-lamin A binding inhibitor, ameliorates premature senescence phenotypes of Hutchinson-Gilford progeria syndrome” (Communications Biology, 2021)
“And” between values parts separate entries of the source, which are not always exact repeats. Equal entries are not always repeated.

System: H3K9me3
Experiment: H3K9me3 expression in HGPS cells
Type: cell-based, human
Settings: for H3K9me3 intensity / H3K9me3 positive cells after treatment with chemicals, Ave / H3K9me3 positive cells after treatment with chemicals: AG03198; for H3K9me3 positive cells after treatment with chemicals, Ave: average; for H3K9me3 positive cells after treatment with chemicals: single replicates
Protocol: Fig. 1 SLC-D011 ameliorates premature aging features of HGPS. A. HEK293 cells were transiently transfected with expression vector encoding wild-type lamin A (WT-LA), lamin A-C661A (LA-C661A), progerin, or progerin-C611A. LA-C661A or progerin-C611A with point mutation in CaaX motif was predicted to be lack of farnesylation, […] that of authentic WT-LA or progerin. GFP-conjugated empty expression vector was used as a negative control. Cells were visualized at 24 h after transfection. B Transient transfection of HEK293 cells with expression vector encoding progerin or […] leads to reduced expression of H3K9me3 (n = 3 independent experiments; two-tailed Student’s t test). C. JH4 derivatives (JH010 and SLC-D011(D011)) inhibit lamin A and progerin interaction. For binding inhibition assay, bead-conjugated lamin A (GST-LA) was incubated with HEK293 cells, transiently transfected with GFP-progerin (PG), and treated with indicated chemicals. Actin was used as a loading control. PPT, co-precipitated materials with recombinant proteins; Sup supernatant. 5 μM of each chemical was used for binding assay. […] H3K9me3 reduction is a well-known marker for premature aged cells. Thus, H3K9me3 expression was evaluated by immunostaining. […] E SLC-D011 obviously suppresses progerin expression. For progerin expression analysis, each chemical was used to treat HGPS cells (AG03198, Coriell Cell Repositories) for 7 days. […] F SLC-D011 reduces the expression of progerin in other HGPS cells (AG11513 and AG11498, Coriell Cell Repositories). Treatment with SLC-D011 (2 μM) for 7 days reduced the expression of progerin and p16/INK4A but induced the expression of H3K9me3. […] G JH4, JH010, and SLC-D011 promote cell proliferation. Cell viability was determined by MTT assay after incubation with chemicals for 7 days (n = 3 independent experiments; two-tailed Student’s t test). H JH4, JH010, and SLC-D011 show similar activity for ameliorating nuclear deformation. After incubation with chemicals for 7 days, cells were stained with progerin and H3K9me3 antibodies (n = 3 independent experiment; two-tailed Student’s t test), **p < 0.001. Data are reported as mean ± SD. “Con” means Dimethyl sulfoxide (DMSO)-treated control. The data are normalized to DMSO-treated cells.
Cells were cultured on coverslips, washed with PBS, fixed with 4% paraformaldehyde (PFA) for 30 min at RT, and then permeabilized with 0.2% Triton X-100 at RT for 5 min. After treatment with blocking solution (anti-Human antibody diluted 1:400 in PBS) for 1 h, cells were incubated with anti-lamin A/C (1:400), anti-progerin (1:100), Ki67 (1:200), and anti-H3K9me3 (1:200) in blocking buffer overnight at 4 °C. Finally, cells were incubated with fluorescein isothiocyanate and rhodamine-conjugated secondary antibodies at 4 °C for 7 h. Nuclei were stained with DAPI (4, 6-diamidino-2-phenylindole) at RT for 10 min. After cells were washed three times with PBS, coverslips were mounted with mounting solution (H-5501; Vector Laboratories, Burlingame, CA, USA). Immunofluorescence signal was detected with a fluorescence microscopy (Zeiss and Logos).
For nuclear deformation cell counting, immunofluorescence staining was performed with lamin A or progerin antibodies. After staining, abnormal nuclear membrane was counted in randomly selected fields and expressed as percentages or actual numbers of total cells counted. Abnormalities of nuclear membrane were determined based on the following: (1) lamin A/C or progerin lining was extruded or engulfed, (2) having at least one bleb, and (3) irregular contour. Counting of cells with nuclear deformation was performed by three independent observers who were blinded to chemical treatment group. To analyze histone H3K9me3 intensity or expression, images were quantified using “color histogram” function of Image J software (National Institute of Health, NIH). Fluorescence intensities were subtracted by background signals.

## CC1(C)Oc2cc3oc(=O)ccc3cc2C[C@@H]1OC/C=C/c1ccccc1 [SLC-D011]
  H3K9me3 intensity: 0.227 AU and 0.219 AU and 0.255 AU and 0.254 AU
2μM
  H3K9me3 positive cells after treatment with chemicals, Ave: 19.5
  H3K9me3 positive cells after treatment with chemicals: 15 and 23 and 20 and 19 and 22 and 18
5μM
  H3K9me3 positive cells after treatment with chemicals, Ave: 25.1667
  H3K9me3 positive cells after treatment with chemicals: 20 and 24 and 27 and 28 and 29 and 23
10μM
  H3K9me3 positive cells after treatment with chemicals, Ave: 29
  H3K9me3 positive cells after treatment with chemicals: 24 and 33 and 32 and 30 and 29 and 26
mean
  H3K9me3 intensity: 0.2387 AU
HGPS cells
  Effect on H3K9me3 expression: induce H3K9me3 expression

## CC1(C)Oc2cc3oc(=O)ccc3cc2CC1OC(=O)C=Cc1cccnc1 (stereo not drawn) [JH4]
2μM
  H3K9me3 positive cells after treatment with chemicals, Ave: 14.5
  H3K9me3 positive cells after treatment with chemicals: 13 and 17 and 15 (2×) and 11 and 16
5μM
  H3K9me3 positive cells after treatment with chemicals, Ave: 21.6667
  H3K9me3 positive cells after treatment with chemicals: 27 and 16 and 20 and 22 (2×) and 23
10μM
  H3K9me3 positive cells after treatment with chemicals, Ave: 27
  H3K9me3 positive cells after treatment with chemicals: 30 and 29 and 24 and 25 and 27 (2×)
